Laboratory results: patent publication US20210188843A1, “QUINOLINE COMPOUNDS AND THEIR PREPARATION AND USE AS ANTIMALARIAL AGENTS” (The United States of America,as represented by the …, priority 2018, published 2021)
Converted amounts (≈) assume the structure as drawn.

How the values were obtained:
[1] = test system: Asexual parasites of P. falciparum strain 3D7; assay: In vitro drug activity on asexual parasites (SYBR Green assay); type: cell-based; details: Plasmodium falciparum; Table 1; P. falciparum 3D7 asexual stage, 72 h; read-out: Asexual EC50
Procedure, shortened: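 Growth was measured by SYBR Green I fluorescence (excitation 490 nm, emission 520 nm) after freeze-thaw lysis and 30 min staining at room temperature. Parasites (0.5% parasitemia, 2% hematocrit) had been incubated 72 h with compound, DMSO below 0.5%. Conditions were run in duplicate with no-drug and RBC-alone controls.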

[2] = Microsomal stability (rat); type: in vitro ADME; details: rat microsomes, Table 1, read-out: Microsomal Stability (rat) T1/2
Solubility pH 7.4 = type: physicochemical; details: aqueous buffer, Table 1
PAMPA permeability = type: in vitro ADME; details: Table 1

SMILES | EC50 [1] | half-life [2] | solubility (Solubility pH 7.4) | Papp (PAMPA permeability)
Cc1ccc(C#N)cc1-n1c(=N)n(C)c2cnc3ccc(-c4cccc(F)c4)cc3c21 [Compound 34, 3-(8-(3-fluorophenyl)-2-imino-3-methyl-2,3-dihydro-1H-imidazo[4,5-c]quinolin-1-yl)-4-methylbenzonitrile] | 47.3 nM | > 30 min | > 40 µg/mL | 852 ×10⁻⁶ cm/s
COc1ccc(-c2ccc3ncc4c(c3c2)n(-c2cc(C#N)ccc2C)c(=N)n4C)cc1OC [Compound 41, 3-(8-(3,4-dimethoxyphenyl)-2-imino-3-methyl-2,3-dihydro-1H-imidazo[4,5-c]quinolin-1-yl)-4-methylbenzonitrile] | 46.2 nM | > 30 min | > 44 µg/mL | 988 ×10⁻⁶ cm/s
Cc1ccc(C#N)cc1-n1c(=N)n(C)c2cnc3ccc(-c4ccc(F)c(F)c4)cc3c21 [Compound 43, 3-(8-(3,4-difluorophenyl)-2-imino-3-methyl-2,3-dihydro-1H-imidazo[4,5-c]quinolin-1-yl)-4-methylbenzonitrile] | 118 nM | > 30 min | 8.3 µg/mL (≈ 19.5 µM) | 837 ×10⁻⁶ cm/s
Cn1c(=N)n(-c2cnc(N3CCNCC3)c(C#N)c2)c2c3cc(-c4ccc(Cl)cc4)ccc3ncc21 [Compound 48, 5-(8-(4-chlorophenyl)-2-imino-3-methyl-2,3-dihydro-1H-imidazo[4,5-c]quinolin-1-yl)-2-(piperazin-1-yl)nicotinonitrile] | 125 nM | > 30 min | < 1 µg/mL | 30.5 ×10⁻⁶ cm/s
Cn1c(=N)n(-c2ccc(N3CCOCC3)c(C#N)c2)c2c3cc(-c4ccc(Cl)cc4)ccc3ncc21 [Compound 51, 5-(8-(4-chlorophenyl)-2-imino-3-methyl-2,3-dihydro-1H-imidazo[4,5-c]quinolin-1-yl)-2-morpholinobenzonitrile] | 186 nM | > 30 min | < 1 µg/mL | 81.1 ×10⁻⁶ cm/s
Cc1ccc(C#N)cc1-n1c(=N)n(C)c2cnc3ccc(-c4ncc(Cl)cn4)cc3c21 [Compound 52, 3-(8-(5-chloropyrimidin-2-yl)-2-imino-3-methyl-2,3-dihydro-1H-imidazo[4,5-c]quinolin-1-yl)-4-methylbenzonitrile] | 444 nM | > 30 min | > 42 µg/mL | 1430 ×10⁻⁶ cm/s
Cc1ccc(C#N)cc1-n1/c(=N/C(N)=O)n(C)c2cnc3ccc(-c4ccc(F)cc4)cc3c21 [Compound 55, (E)-1-(1-(5-cyano-2-methylphenyl)-8-(4-fluorophenyl)-3-methyl-1,3-dihydro-2H-imidazo[4,5-c]quinolin-2-ylidene)urea] | 95.1 nM | > 30 min | 1.3 µg/mL (≈ 2.89 µM) | 466 ×10⁻⁶ cm/s
Cn1c(=N)n(C2CC(N3CCOCC3)C2)c2c3cc(-c4ccc(Cl)cc4)ccc3ncc21 (centres unmarked) [Compound 58, 8-(4-chlorophenyl)-3-methyl-1-(3-morpholinocyclobutyl)-1,3-dihydro-2H-imidazo[4,5-c]quinolin-2-imine] | 2670 nM | > 30 min | > 44 µg/mL | 816 ×10⁻⁶ cm/s
Cc1ccc(C#N)cc1-n1c(=N)n(C)c2cnc3ccc(C4=CCN(C)C4)cc3c21 [Compound 60, 3-(2-imino-3-methyl-8-(1-methyl-2,5-dihydro-1H-pyrrol-3-yl)-2,3-dihydro-1H-imidazo[4,5-c]quinolin-1-yl)-4-methylbenzonitrile] | 481 nM | > 30 min | > 39 µg/mL | 2 ×10⁻⁶ cm/s
Cn1c(=N)n(-c2ccc(C(=O)NC3CC3)cc2)c2c3cc(-c4ccc(Cl)cc4)ccc3ncc21 [Compound 65, 4-(8-(4-chlorophenyl)-2-imino-3-methyl-2,3-dihydro-1H-imidazo[4,5-c]quinolin-1-yl)-N-cyclopropylbenzamide] | 580 nM | > 30 min | 6.1 µg/mL (≈ 13 µM) | 10.2 ×10⁻⁶ cm/s
Cn1c(=N)n(-c2ccccc2C#N)c2c3cc(-c4ccc(Cl)cc4)ccc3ncc21 [Compound 68, 2-(8-(4-chlorophenyl)-2-imino-3-methyl-2,3-dihydro-1H-imidazo[4,5-c]quinolin-1-yl)benzonitrile] | 1450 nM | > 30 min | > 41 µg/mL | 142 ×10⁻⁶ cm/s
Cn1c(=N)n(-c2cccc(N3CCNCC3)c2)c2c3cc(-c4ccc(Cl)cc4)ccc3ncc21 [Compound 76, 8-(4-chlorophenyl)-3-methyl-1-(3-(piperazin-1-yl)phenyl)-1,3-dihydro-2H-imidazo[4,5-c]quinolin-2-imine] | 802 nM | > 30 min | > 46 µg/mL | 28.3 ×10⁻⁶ cm/s
Cn1c(=N)n(-c2cccc(O)c2)c2c3cc(-c4ccc(Cl)cc4)ccc3ncc21 [Compound 79, 3-(8-(4-chlorophenyl)-2-imino-3-methyl-2,3-dihydro-1H-imidazo[4,5-c]quinolin-1-yl)phenol] | 1420 nM | > 30 min | 9.7 µg/mL (≈ 24.2 µM) | 42 ×10⁻⁶ cm/s

Further lines, results first:

EC50 [1] | half-life [2] | solubility (Solubility pH 7.4) | Papp (PAMPA permeability) | SMILES
34 nM | > 30 min | > 39 µg/mL | 716 ×10⁻⁶ cm/s | Cc1ccc(C#N)cc1-n1c(=N)n(C)c2cnc3ccc(-c4ccccc4)cc3c21 [Compound 35, 3-(2-imino-3-methyl-8-phenyl-2,3-dihydro-1H-imidazo[4,5-c]quinolin-1-yl)-4-methylbenzonitrile]
158 nM | 27 min | > 40 µg/mL | 1150 ×10⁻⁶ cm/s | Cc1cccc(-c2ccc3ncc4c(c3c2)n(-c2cc(C#N)ccc2C)c(=N)n4C)c1 [Compound 36, 3-(2-imino-3-methyl-8-(m-tolyl)-2,3-dihydro-1H-imidazo[4,5-c]quinolin-1-yl)-4-methylbenzonitrile]
46.1 nM | > 30 min | > 40 µg/mL | 10.3 ×10⁻⁶ cm/s | Cc1ccc(C#N)cc1-n1c(=N)n(C)c2cnc3ccc(-c4cccc(O)c4)cc3c21 [Compound 37, 3-(8-(3-hydroxyphenyl)-2-imino-3-methyl-2,3-dihydro-1H-imidazo[4,5-c]quinolin-1-yl)-4-methylbenzonitrile]
83 nM | > 30 min | > 40 µg/mL | 435 ×10⁻⁶ cm/s | Cc1ccc(C#N)cc1-n1c(=N)n(C)c2cnc3ccc(-c4cccc(N)c4)cc3c21 [Compound 38, 3-(8-(3-aminophenyl)-2-imino-3-methyl-2,3-dihydro-1H-imidazo[4,5-c]quinolin-1-yl)-4-methylbenzonitrile]
54.5 nM | > 30 min | > 42 µg/mL | 147 ×10⁻⁶ cm/s | Cc1ccc(C#N)cc1-n1c(=N)n(C)c2cnc3ccc(-c4ccc(F)c(O)c4)cc3c21 [Compound 39, 3-(8-(4-fluoro-3-hydroxyphenyl)-2-imino-3-methyl-2,3-dihydro-1H-imidazo[4,5-c]quinolin-1-yl)-4-methylbenzonitrile]
574 nM | > 30 min | < 1 µg/mL | 1650 ×10⁻⁶ cm/s | Cc1ccc(C#N)cc1-n1c(=N)n(C)c2cnc3ccc(-c4ccc(Cl)c(Cl)c4)cc3c21 [Compound 42, 3-(8-(3,4-dichlorophenyl)-2-imino-3-methyl-2,3-dihydro-1H-imidazo[4,5-c]quinolin-1-yl)-4-methylbenzonitrile]
119 nM | > 30 min | > 42 µg/mL | 1560 ×10⁻⁶ cm/s | Cc1ccc(C#N)cc1-n1c(=N)n(C)c2cnc3ccc(-c4ccc(Cl)cn4)cc3c21 [Compound 44, 3-(8-(5-chloropyridin-2-yl)-2-imino-3-methyl-2,3-dihydro-1H-imidazo[4,5-c]quinolin-1-yl)-4-methylbenzonitrile]
58.2 nM | > 30 min | 1 µg/mL (≈ 2.02 µM) | 4.9 ×10⁻⁶ cm/s | Cn1c(=N)n(-c2ccc(N3CCNCC3)c(C#N)c2)c2c3cc(-c4ccc(Cl)cc4)ccc3ncc21 [Compound 49, 5-(8-(4-chlorophenyl)-2-imino-3-methyl-2,3-dihydro-1H-imidazo[4,5-c]quinolin-1-yl)-2-(piperazin-1-yl)benzonitrile]
120 nM | > 30 min | 12.2 µg/mL (≈ 27.7 µM) | 850 ×10⁻⁶ cm/s | COc1ccc(C#N)cc1-n1c(=N)n(C)c2cnc3ccc(-c4ccc(Cl)cc4)cc3c21 [Compound 53, 3-(8-(4-chlorophenyl)-2-imino-3-methyl-2,3-dihydro-1H-imidazo[4,5-c]quinolin-1-yl)-4-methoxybenzonitrile]
1460 nM | > 30 min | > 44 µg/mL | 1.7 ×10⁻⁶ cm/s | Cc1ccc(C#N)cc1-n1/c(=N/C(=N)N)n(C)c2cnc3ccc(-c4ccc(F)cc4)cc3c21 [Compound 56, (E)-1-(1-(5-cyano-2-methylphenyl)-8-(4-fluorophenyl)-3-methyl-1,3-dihydro-2H-imidazo[4,5-c]quinolin-2-ylidene)guanidine]
2990 nM | > 30 min | > 42 µg/mL | 48.1 ×10⁻⁶ cm/s | CNCc1cccc(-n2c(=N)n(C)c3cnc4ccc(-c5ccc(Cl)cc5)cc4c32)c1 [Compound 67, 1-(3-(8-(4-chlorophenyl)-2-imino-3-methy-2,3-dihydro-H-imidazo[4,5-c]quinolin-1-yl)phenyl)-N-methylmethanamine]
309 nM | > 30 min | < 1 µg/mL | 629 ×10⁻⁶ cm/s | Cn1c(=N)n(-c2cccc(F)c2)c2c3cc(-c4ccc(Cl)cc4)ccc3ncc21 [Compound 78, 8-(4-chlorophenyl)-1-(3-fluorophenyl)-3-methyl-1,3-dihydro-2H-imidazo[4,5-c]quinolin-2-imine]
702 nM | > 30 min | > 48 µg/mL | 11.2 ×10⁻⁶ cm/s | Cn1c(=N)n(-c2cccc(CN3CCNCC3)c2)c2c3cc(-c4ccc(Cl)cc4)ccc3ncc21 [Compound 85, 8-(4-chlorophenyl)-3-methyl-1-(3-(piperazin-1-ylmethyl)phenyl)-1,3-dihydro-2H-imidazo[4,5-c]quinolin-2-imine]
